The compounds below were run against T1, human LPA1 (Homo sapiens, UniProt Q92633) (assay: LPA1 functional antagonist assay (calcium flux)). Settings: CHO cells overexpressing human LPA1; inhibition of calcium flux induced by 10 nM LPA; read-out: hLPA1 IC50.
T1 construct: expressed in transfected cells; host or cells: Chinese hamster ovary (CHO) cells
Assay type: cell-based
Experimental: The effectiveness of compounds of the present invention as LPA1 inhibitors can be determined in an LPA1 functional antagonist assay as follows:
Chinese hamster ovary cells overexpressing human LPA1 were plated overnight (15,000 cells/well) in poly-D-lysine coated 384-well microplates (Greiner bio-one, Cat #781946) in DMEM/F12 medium (Gibco, Cat #11039). Following overnight culture, cells were loaded with calcium indicator dye (AAT Bioquest Inc, Cat #34601) for 30 minutes at 37° C. The cells were then equilibrated to room temperature for 30 minutes before the assay. Test compounds solubilized in DMSO were transferred to 384 well non-binding surface plates (Corning, Cat #3575) using the Labcyte Echo acoustic dispense and diluted with assay buffer [1×HBSS with calcium/magnesium (Gibco Cat #14025-092), 20 mM HEPES (Gibco Cat #15630-080) and 0.1% fatty acid free BSA (Sigma Cat #A9205)] to a final concentration of 0.5% DMSO. Diluted compounds were added to the cells by FDSS6000 (Hamamatsu) at final concentrations ranging from 0.08 nM to 5 μM. and were then incubated for 20 min at room temperature at which time LPA (Avanti Polar Lipids Cat #857130C) was added at final concentrations of 10 nM to stimulate the cells. The compound IC50 value was defined as the concentration of test compound which inhibited 50% of the calcium flux induced by LPA alone. IC50 values were determined by fitting data to a 4-parameter logistic equation (GraphPad Prism, San Diego Calif.).

T1 sequence (Q92633 whole entry): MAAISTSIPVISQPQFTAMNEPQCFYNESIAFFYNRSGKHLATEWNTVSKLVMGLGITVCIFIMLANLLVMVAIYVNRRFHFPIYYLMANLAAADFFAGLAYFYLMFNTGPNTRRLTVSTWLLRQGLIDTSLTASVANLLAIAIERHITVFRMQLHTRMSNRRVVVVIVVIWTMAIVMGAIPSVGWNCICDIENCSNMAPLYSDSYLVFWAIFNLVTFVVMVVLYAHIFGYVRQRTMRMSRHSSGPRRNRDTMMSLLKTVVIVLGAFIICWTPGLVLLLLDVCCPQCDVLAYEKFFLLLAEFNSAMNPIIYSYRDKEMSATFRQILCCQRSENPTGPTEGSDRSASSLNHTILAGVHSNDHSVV

SMILES | IC50
CCC(C)c1ncnc(NCc2c(-c3ccc(O[C@H]4CCC[C@H](C(=O)O)C4)c(C)n3)nnn2C)n1 (mixture of isomers) [Example 197, (1S,3S)-3-((6-(5-(((4-(sec-Butyl)-1,3,5-triazin-2-yl)amino)methyl)-1-methyl-1H-1,2,3-triazol-4-yl)-2-methylpyridin-3-yl)oxy)cyclohexane-1-carboxylic acid] | 94 nM
Cc1nc(-c2nnn(C)c2COc2nccc(OC3CC3)n2)ccc1O[C@H]1CCCC(C(=O)O)C1 (mixture of isomers) [Example 251, (3S)-3-((6-(5-(((4-cyclopropoxypyrimidin-2-yl)oxy)methyl)-1-methyl-1H-1,2,3-triazol-4-yl)-2-methylpyridin-3-yl)oxy)cyclohexane-1-carboxylic acid] | 41 nM
Cc1nc(-c2nnn(C)c2CNc2cc(-c3ccccc3)ccn2)ccc1O[C@H]1CCC[C@H](C(=O)O)C1 (stereo in doubt) [Example 2, (1S,3S)-3-((2-Methyl-6-(1-methyl-5-(((4-phenylpyridin-2-yl)amino)methyl)-1H-1,2,3-triazol-4-yl)pyridin-3-yl)oxy)cyclohexanecarboxylic acid] | 32 nM
Cc1nc(-c2nnn(C)c2CNc2ncnc(-c3ccccc3)n2)ccc1O[C@H]1CCC[C@H](C(=O)O)C1 [Example 3, (1S,3S)-3-((2-Methyl-6-(1-methyl-5-(((4-phenyl-1,3,5-triazin-2-yl)amino)methyl)-1H-1,2,3-triazol-4-yl)pyridin-3-yl)oxy)cyclohexanecarboxylic acid] | 120 nM
CCCc1ccnc(NCc2c(-c3ccc(O[C@H]4CCC[C@H](C(=O)O)C4)c(C)n3)nnn2C)n1 [Example 7] | 8 nM
Cc1nc(-c2nnn(C)c2CNc2nccc(C(C)C)n2)ccc1O[C@H]1CCC[C@H](C(=O)O)C1 [Example 8] | 10 nM
Cc1nc(-c2nnn(C)c2CNc2nccc(Cc3ccccc3)n2)ccc1O[C@H]1CCC[C@H](C(=O)O)C1 [Example 11] | 103 nM
COc1ccnc(NCc2c(-c3ccc(O[C@H]4CCC[C@H](C(=O)O)C4)c(C)n3)nnn2C)n1 [Example 12] | 56 nM
Cc1cc(OC(C)C)nc(NCc2c(-c3ccc(O[C@H]4CCC[C@H](C(=O)O)C4)c(C)n3)nnn2C)n1 [Example 16] | 29 nM
Cc1nc(-c2nnn(C)c2CNc2nccc(N3CCCC3)n2)ccc1O[C@H]1CCC[C@H](C(=O)O)C1 [Example 17] | 206 nM
Cc1nc(-c2nnn(C)c2CNc2nccc(C(F)(F)F)n2)ccc1O[C@H]1CCC[C@H](C(=O)O)C1 [Example 18] | 66 nM
Cc1cnc(NCc2c(-c3ccc(O[C@H]4CCC[C@H](C(=O)O)C4)c(C)n3)nnn2C)nc1-c1ccccc1 [Example 19] | 8 nM
Cc1nc(-c2nnn(C)c2CNc2nccc(-c3ccccn3)n2)ccc1O[C@H]1CCC[C@H](C(=O)O)C1 [Example 21] | 101 nM
COc1ccccc1-c1ccnc(NCc2c(-c3ccc(O[C@H]4CCC[C@H](C(=O)O)C4)c(C)n3)nnn2C)n1 [Example 22] | 219 nM
Cc1nc(-c2nnn(C)c2CNc2cc(C(C)(C)C)ncn2)ccc1O[C@H]1CCC[C@H](C(=O)O)C1 [Example 23] | 1050 nM
Cn1nnc(-c2ccc(O[C@H]3CCC[C@H](C(=O)O)C3)cn2)c1CNc1nccc(-c2ccccc2)n1 [Example 26] | 8 nM
Cn1nnc(-c2cnc(O[C@H]3CCC[C@H](C(=O)O)C3)cn2)c1CNc1nccc(-c2ccccc2)n1 [Example 27] | 26 nM
Cn1nnc(-c2ccc(O[C@H]3CCC[C@H](C(=O)O)C3)cn2)c1CNc1nccc(-c2ccccc2F)n1 [Example 28] | 19 nM
Cn1nnc(-c2ccc(O[C@H]3CCC[C@H](C(=O)O)C3)cn2)c1CNc1nccc(-c2ccccn2)n1 [Example 29] | 39 nM
Cc1cnc(NCc2c(-c3ccc(O[C@H]4CCC[C@H](C(=O)O)C4)cn3)nnn2C)nc1-c1ccccn1 [Example 30] | 300 nM
Cn1nnc(-c2ccc(O[C@H]3CCC[C@H](C(=O)O)C3)cn2)c1CNc1nccc(-c2cccnc2)n1 [Example 32] | 277 nM
Cc1cc(-c2ccccn2)nc(NCc2c(-c3ccc(O[C@H]4CCC[C@H](C(=O)O)C4)cn3)nnn2C)n1 [Example 37] | 166 nM
Cn1nnc(-c2ccc(O[C@H]3CCC[C@H](C(=O)O)C3)cn2)c1CNc1nccc(C(C)(C)C)n1 [Example 38] | 36 nM
CCc1ccnc(NCc2c(-c3ccc(O[C@H]4CCC[C@H](C(=O)O)C4)c(C)n3)nnn2C)n1 [Example 40] | 46 nM
CCCN(C)c1nc(NCc2c(-c3ccc(O[C@H]4CCC[C@H](C(=O)O)C4)c(C)n3)nnn2C)ncc1F [Example 44] | 44 nM
CCCN(C)c1ccnc(NCc2c(-c3ccc(O[C@H]4CCC[C@H](C(=O)O)C4)c(C)n3)nnn2C)n1 [Example 46] | 304 nM

The remaining compounds from weak to strong by IC50, led by results:

IC50 | SMILES
1130 nM | Cn1nnc(-c2ccc(O[C@H]3CCC[C@H](C(=O)O)C3)cn2)c1CNc1nccc(-n2cccn2)n1 [Example 34]
361 nM | Cn1nnc(-c2cnc(O[C@H]3CCC[C@H](C(=O)O)C3)cn2)c1CNc1nccc(C(C)(C)C)n1 [Example 5, (1S,3S)-3-((5-(5-(((4-(tert-butyl)pyrimidin-2-yl)amino)methyl)-1-methyl-1H-1,2,3-triazol-4-yl)pyrazin-2-yl)oxy)cyclohexane-1-carboxylic acid]
218 nM | COc1cc(NCc2c(-c3ccc(O[C@H]4CCC[C@H](C(=O)O)C4)c(C)n3)nnn2C)ncn1 [Example 24]
218 nM | Cc1nc(-c2nnn(C)c2CNc2ncc(F)c(N3CCC3)n2)ccc1O[C@H]1CCC[C@H](C(=O)O)C1 [Example 42]
208 nM | Cc1nc(-c2nnn(C)c2CNc2ncc(F)c(NCC(F)(F)F)n2)ccc1O[C@H]1CCC[C@H](C(=O)O)C1 [Example 41]
178 nM | Cn1nnc(-c2ccc(O[C@H]3CCC[C@H](C(=O)O)C3)cn2)c1CNc1nccc(Oc2ccccc2)n1 [Example 31]
153 nM | COc1nc(NCc2c(-c3ccc(O[C@H]4CCC[C@H](C(=O)O)C4)c(C)n3)nnn2C)nc(-c2ccccc2)n1 [Example 4, (1S,3S)-3-((6-(5-(((4-Methoxy-6-phenyl-1,3,5-triazin-2-yl)amino)methyl)-1-methyl-1H-1,2,3-triazol-4-yl)-2-methylpyridin-3-yl)oxy)cyclohexanecarboxylic acid]
145 nM | Cc1nc(-c2nnn(C)c2CNc2ccnc(OC(C)C)n2)ccc1O[C@H]1CCC[C@H](C(=O)O)C1 [Example 25]
130 nM | CCC(C)c1nc(O)nc(NCc2c(-c3ccc(O[C@H]4CCC[C@H](C(=O)O)C4)c(C)n3)nnn2C)n1 (mixture of isomers) [Example 198, (1S,3S)-3-((6-(5-(((4-(sec-Butyl)-6-hydroxy-1,3,5-triazin-2-yl)amino)methyl)-1-methyl-1H-1,2,3-triazol-4-yl)-2-methylpyridin-3-yl)oxy) cyclohexane-1-carboxylic acid]
109 nM | Cc1nc(-c2nnn(C)c2CNc2ncc(F)c(NC3CC3)n2)ccc1O[C@H]1CCC[C@H](C(=O)O)C1 [Example 45]
69 nM | Cc1nc(-c2nnn(C)c2CNc2ncc(F)c(NCC3CC3)n2)ccc1O[C@H]1CCC[C@H](C(=O)O)C1 [Example 47]
67 nM | Cc1nc(-c2nnn(C)c2COc2nccc(OC(C)C)n2)ccc1O[C@H]1CCC[C@@H](C(=O)O)C1 (single isomer, unassigned) [Example 249]
59 nM | COc1ccccc1-c1ccnc(NCc2c(-c3ccc(O[C@H]4CCC[C@H](C(=O)O)C4)cn3)nnn2C)n1 [Example 36]
46 nM | Cc1nc(-c2nnn(C)c2CNc2nccc(OC(C)C)n2)ccc1O[C@H]1CCC[C@H](C(=O)O)C1 [Example 14]
41 nM | Cc1nc(-c2nnn(C)c2COc2nccc(OC(C)C)n2)ccc1O[C@H]1CCC[C@H](C(=O)O)C1 (single isomer, unassigned) [Example 250]
41 nM | Cc1nc(-c2nnn(C)c2CNc2nccc(-c3ccccc3)n2)ccc1O[C@H]1CCC[C@H](C(=O)O)C1 [Example 39]
36 nM | Cc1nc(-c2nnn(C)c2CNc2nccc(C3CC3)n2)ccc1O[C@H]1CCC[C@H](C(=O)O)C1 [Example 9]
28 nM | CC(C)c1ccnc(NCc2c(-c3ccc(O[C@H]4CCC[C@H](C(=O)O)C4)cn3)nnn2C)n1 [Example 35]
26 nM | Cc1nc(-c2nnn(C)c2CNc2nccc(C(C)(C)C)n2)ccc1O[C@H]1CCC[C@H](C(=O)O)C1 [Example 1, (1S,3S)-3-((6-(5-(((4-(tert-Butyl)pyrimidin-2-yl)amino)methyl)-1-methyl-1H-1,2,3-triazol-4-yl)-2-methylpyridin-3-yl)oxy)cyclohexanecarboxylic acid]
19 nM | CCOc1ccnc(NCc2c(-c3ccc(O[C@H]4CCC[C@H](C(=O)O)C4)c(C)n3)nnn2C)n1 [Example 13]
16 nM | Cc1nc(-c2nnn(C)c2CNc2nccc(-c3ccccc3F)n2)ccc1O[C@H]1CCC[C@H](C(=O)O)C1 [Example 20]
11 nM | Cc1nc(-c2nnn(C)c2CNc2nccc(C3CCC3)n2)ccc1O[C@H]1CCC[C@H](C(=O)O)C1 [Example 10]
8 nM | Cc1nc(-c2nnn(C)c2CNc2nccc(Oc3ccccc3)n2)ccc1O[C@H]1CCC[C@H](C(=O)O)C1 [Example 15]

Source: patent US11267800B2, “Cyclohexyl acid triazole azines as LPA antagonists” (BRISTOL-MYERS SQUIBB COMPANY, priority 2017, dated 2022)
